Tests used:
Type in all cases: ADME
[1] = The drug is tested on Collinsella aerofaciens strain: DSM3979 for biotransformation under anaerobic condition. The drug concentrations were measured over 6 timepoints collected between 0 and 12 hours of incubation by liquid-chromatography-coupled mass spectrometry (LC–MS); set-up: dose 5 uM, timepoint 0, 1.5, 3, 6, 9, 12 hours; settings: 5 µM
[2] = The drug is tested on Capnocytophaga ochracea strain: DSM7271 for biotransformation under anaerobic condition. The drug concentrations were measured over 6 timepoints collected between 0 and 12 hours of incubation by liquid-chromatography-coupled mass spectrometry (LC–MS); set-up: dose 5 uM, timepoint 0, 1.5, 3, 6, 9, 12 hours; settings: 5 µM
[3] = The drug is tested on Odoribacter splanchnicus strain: DSM20712 for biotransformation under anaerobic condition. The drug concentrations were measured over 6 timepoints collected between 0 and 12 hours of incubation by liquid-chromatography-coupled mass spectrometry (LC–MS); set-up: dose 5 uM, timepoint 0, 1.5, 3, 6, 9, 12 hours; settings: 5 µM
[4] = The drug is tested on Parabacteroides merdae strain: DSM19495 for biotransformation under anaerobic condition. The drug concentrations were measured over 6 timepoints collected between 0 and 12 hours of incubation by liquid-chromatography-coupled mass spectrometry (LC–MS); set-up: dose 5 uM, timepoint 0, 1.5, 3, 6, 9, 12 hours; settings: 5 µM
[5] = The drug is tested on Prevotella copri strain: DSM18205 for biotransformation under anaerobic condition. The drug concentrations were measured over 6 timepoints collected between 0 and 12 hours of incubation by liquid-chromatography-coupled mass spectrometry (LC–MS); set-up: dose 5 uM, timepoint 0, 1.5, 3, 6, 9, 12 hours; settings: segatella copri, 5 µM
[6] = The drug is tested on Eubacterium rectale strain: DSM17629 for biotransformation under anaerobic condition. The drug concentrations were measured over 6 timepoints collected between 0 and 12 hours of incubation by liquid-chromatography-coupled mass spectrometry (LC–MS); set-up: dose 5 uM, timepoint 0, 1.5, 3, 6, 9, 12 hours; settings: agathobacter rectalis, 5 µM
[7] = The drug is tested on Lactobacillus paracasei strain: ATCC27092 for biotransformation under anaerobic condition. The drug concentrations were measured over 6 timepoints collected between 0 and 12 hours of incubation by liquid-chromatography-coupled mass spectrometry (LC–MS); set-up: dose 5 uM, timepoint 0, 1.5, 3, 6, 9, 12 hours; settings: lacticaseibacillus paracasei, 5 µM
[8] = The drug is tested on Ruminococcus gnavus strain: ATCC29149 for biotransformation under anaerobic condition. The drug concentrations were measured over 6 timepoints collected between 0 and 12 hours of incubation by liquid-chromatography-coupled mass spectrometry (LC–MS); set-up: dose 5 uM, timepoint 0, 1.5, 3, 6, 9, 12 hours; settings: mediterraneibacter gnavus, 5 µM
[9] = The drug is tested on Streptococcus anginosus strain: DSM20563 for biotransformation under anaerobic condition. The drug concentrations were measured over 6 timepoints collected between 0 and 12 hours of incubation by liquid-chromatography-coupled mass spectrometry (LC–MS); set-up: dose 5 uM, timepoint 0, 1.5, 3, 6, 9, 12 hours; settings: 5 µM
[10] = The drug is tested on Streptococcus sanguinis strain: DSM20567 for biotransformation under anaerobic condition. The drug concentrations were measured over 6 timepoints collected between 0 and 12 hours of incubation by liquid-chromatography-coupled mass spectrometry (LC–MS); set-up: dose 5 uM, timepoint 0, 1.5, 3, 6, 9, 12 hours; settings: 5 µM
[11] = The drug is tested on Actinomyces graevenitzii strain: DSM15540 for biotransformation under microaerobic condition. The drug concentrations were measured over 6 timepoints collected between 0 and 12 hours of incubation by liquid-chromatography-coupled mass spectrometry (LC–MS); set-up: dose 5 uM, timepoint 0, 1.5, 3, 6, 9, 12 hours; settings: 5 µM
[12] = The drug is tested on Lactobacillus gasseri strain: DSM20243 for biotransformation under microaerobic condition. The drug concentrations were measured over 6 timepoints collected between 0 and 12 hours of incubation by liquid-chromatography-coupled mass spectrometry (LC–MS); set-up: dose 5 uM, timepoint 0, 1.5, 3, 6, 9, 12 hours; settings: 5 µM
[13] = The drug is tested on Lactobacillus reuteri strain: DSM20016 for biotransformation under microaerobic condition. The drug concentrations were measured over 6 timepoints collected between 0 and 12 hours of incubation by liquid-chromatography-coupled mass spectrometry (LC–MS); set-up: dose 5 uM, timepoint 0, 1.5, 3, 6, 9, 12 hours; settings: limosilactobacillus reuteri, 5 µM
[14] = The drug is tested on Streptococcus salivarius strain: DSM20560 for biotransformation under microaerobic condition. The drug concentrations were measured over 6 timepoints collected between 0 and 12 hours of incubation by liquid-chromatography-coupled mass spectrometry (LC–MS); set-up: dose 5 uM, timepoint 0, 1.5, 3, 6, 9, 12 hours; settings: 5 µM
[15] = The drug is tested on Streptococcus sanguinis strain: DSM20567 for biotransformation under microaerobic condition. The drug concentrations were measured over 6 timepoints collected between 0 and 12 hours of incubation by liquid-chromatography-coupled mass spectrometry (LC–MS); set-up: dose 5 uM, timepoint 0, 1.5, 3, 6, 9, 12 hours; settings: 5 µM
[16] = The drug is tested on the gut metagenome community of A-04 with ENA study accession number: PRJEB31790 for biotransformation under anaerobic condition. The drug concentrations were measured over 7 timepoints collected between 0 and 12 hours of incubation by liquid-chromatography-coupled mass spectrometry (LC–MS); set-up: dose 5 uM, timepoint 0, 0.75, 1.5, 3, 6, 9, 12 hours; settings: 5 µM
[17] = The drug is tested on the gut metagenome community of A-06 with ENA study accession number: PRJEB31790 for biotransformation under anaerobic condition. The drug concentrations were measured over 7 timepoints collected between 0 and 12 hours of incubation by liquid-chromatography-coupled mass spectrometry (LC–MS); set-up: dose 5 uM, timepoint 0, 0.75, 1.5, 3, 6, 9, 12 hours; settings: 5 µM
[18] = The drug is tested on the gut metagenome community of P-01 with ENA study accession number: PRJEB31790 for biotransformation under anaerobic condition. The drug concentrations were measured over 7 timepoints collected between 0 and 12 hours of incubation by liquid-chromatography-coupled mass spectrometry (LC–MS); set-up: dose 5 uM, timepoint 0, 0.75, 1.5, 3, 6, 9, 12 hours; settings: 5 µM
[19] = The drug is tested on the gut metagenome community of P-03 with ENA study accession number: PRJEB31790 for biotransformation under anaerobic condition. The drug concentrations were measured over 7 timepoints collected between 0 and 12 hours of incubation by liquid-chromatography-coupled mass spectrometry (LC–MS); set-up: dose 5 uM, timepoint 0, 0.75, 1.5, 3, 6, 9, 12 hours; settings: 5 µM
[20] = The drug is tested on the gut metagenome community of T-02 with ENA study accession number: PRJEB31790 for biotransformation under anaerobic condition. The drug concentrations were measured over 7 timepoints collected between 0 and 12 hours of incubation by liquid-chromatography-coupled mass spectrometry (LC–MS); set-up: dose 5 uM, timepoint 0, 0.75, 1.5, 3, 6, 9, 12 hours; settings: 5 µM
[21] = The drug is tested on the gut metagenome community of T-03 with ENA study accession number: PRJEB31790 for biotransformation under anaerobic condition. The drug concentrations were measured over 7 timepoints collected between 0 and 12 hours of incubation by liquid-chromatography-coupled mass spectrometry (LC–MS); set-up: dose 5 uM, timepoint 0, 0.75, 1.5, 3, 6, 9, 12 hours; settings: 5 µM
[22] = The drug is tested on the gut metagenome community of T-04 with ENA study accession number: PRJEB31790 for biotransformation under anaerobic condition. The drug concentrations were measured over 7 timepoints collected between 0 and 12 hours of incubation by liquid-chromatography-coupled mass spectrometry (LC–MS); set-up: dose 5 uM, timepoint 0, 0.75, 1.5, 3, 6, 9, 12 hours; settings: 5 µM
[23] = The drug is tested on the gut metagenome community of A-01 with ENA study accession number: PRJEB31790 for biotransformation under microaerobic condition. The drug concentrations were measured over 7 timepoints collected between 0 and 12 hours of incubation by liquid-chromatography-coupled mass spectrometry (LC–MS); set-up: dose 5 uM, timepoint 0, 0.75, 1.5, 3, 6, 9, 12 hours; settings: 5 µM
[24] = The drug is tested on the gut metagenome community of A-10 with ENA study accession number: PRJEB31790 for biotransformation under microaerobic condition. The drug concentrations were measured over 7 timepoints collected between 0 and 12 hours of incubation by liquid-chromatography-coupled mass spectrometry (LC–MS); set-up: dose 5 uM, timepoint 0, 0.75, 1.5, 3, 6, 9, 12 hours; settings: 5 µM
[25] = The drug is tested on the gut metagenome community of T-02 with ENA study accession number: PRJEB31790 for biotransformation under microaerobic condition. The drug concentrations were measured over 7 timepoints collected between 0 and 12 hours of incubation by liquid-chromatography-coupled mass spectrometry (LC–MS); set-up: dose 5 uM, timepoint 0, 0.75, 1.5, 3, 6, 9, 12 hours; settings: 5 µM

| Compound | Bacterial Biotransformation [1] | Bacterial Biotransformation [2] | Bacterial Biotransformation [3] | Bacterial Biotransformation [4] | Bacterial Biotransformation [5] | Bacterial Biotransformation [6] | Bacterial Biotransformation [7] | Bacterial Biotransformation [8] | Bacterial Biotransformation [9] | Bacterial Biotransformation [10] | Bacterial Biotransformation [11] | Bacterial Biotransformation [12] | Bacterial Biotransformation [13] | Bacterial Biotransformation [14] | Bacterial Biotransformation [15] | Bacterial Biotransformation [16] | Bacterial Biotransformation [17] | Bacterial Biotransformation [18] | Bacterial Biotransformation [19] | Bacterial Biotransformation [20] | also measured |
| --- | --- | --- | --- | --- | --- | --- | --- | --- | --- | --- | --- | --- | --- | --- | --- | --- | --- | --- | --- | --- | --- |
| CN(Cc1cnc2nc(N)nc(N)c2n1)c1ccc(C(=O)N[C@@H](CCC(=O)O)C(=O)O)cc1 [METHOTREXATE] | Compound NOT metabolized | Compound NOT metabolized | Compound NOT metabolized | Compound NOT metabolized | Compound NOT metabolized | Compound NOT metabolized | Compound NOT metabolized | Compound NOT metabolized | Compound NOT metabolized | Compound NOT metabolized | Compound NOT metabolized | Compound NOT metabolized | Compound NOT metabolized | Compound NOT metabolized | Compound NOT metabolized | Compound metabolized | Compound metabolized | Compound NOT metabolized | Compound metabolized | Compound metabolized | Bacterial Biotransformation [21]: Compound NOT metabolized; Bacterial Biotransformation [22]: Compound NOT metabolized; Bacterial Biotransformation [23]: Compound NOT metabolized; Bacterial Biotransformation [24]: Compound metabolized; Bacterial Biotransformation [25]: Compound metabolized |
| C[C@H]1C[C@@H]2[C@H]([C@@H](O)C[C@@]3(C)[C@H]2CC[C@]3(O)C(=O)CO)[C@@]2(C)C=CC(=O)C=C12 [METHYLPREDNISOLONE] | Compound NOT metabolized | Compound NOT metabolized | Compound NOT metabolized | Compound NOT metabolized | Compound NOT metabolized | Compound NOT metabolized | Compound NOT metabolized | Compound metabolized | Compound NOT metabolized | Compound NOT metabolized | Compound NOT metabolized | Compound NOT metabolized | Compound NOT metabolized | Compound NOT metabolized | Compound NOT metabolized | Compound metabolized | Compound metabolized | Compound metabolized | Compound metabolized | Compound metabolized | Bacterial Biotransformation [21]: Compound NOT metabolized; Bacterial Biotransformation [22]: Compound NOT metabolized; Bacterial Biotransformation [23]: Compound metabolized; Bacterial Biotransformation [24]: Compound metabolized; Bacterial Biotransformation [25]: Compound metabolized |
| COc1c(C)c2c(c(O)c1C/C=C(\C)CCC(=O)OCCN1CCOCC1)C(=O)OC2 [MYCOPHENOLATE MOFETIL] | Compound metabolized | Compound NOT metabolized | Compound NOT metabolized | Compound metabolized | Compound metabolized | Compound NOT metabolized | Compound metabolized | Compound NOT metabolized | Compound metabolized | Compound metabolized | Compound metabolized | Compound NOT metabolized | Compound NOT metabolized | Compound metabolized | Compound metabolized | Compound metabolized | Compound metabolized | Compound metabolized | Compound metabolized | Compound metabolized | Bacterial Biotransformation [21]: Compound metabolized; Bacterial Biotransformation [22]: Compound metabolized; Bacterial Biotransformation [23]: Compound metabolized; Bacterial Biotransformation [24]: Compound metabolized; Bacterial Biotransformation [25]: Compound metabolized |

Reference: ChEMBL document CHEMBL5724806, “Unraveling interindividual differences and functional consequences of gut microbial metabolism of immunosuppressants” (2024)
